Structures can show the parent of a compound that is named as a salt.
What was measured:
Type in all cases: biochemical
human factor XIa = biological target: T1, human factor XIa (Homo sapiens, UniProt P03951); assay: Measurement of FXIa inhibition (fluorogenic peptide substrate Boc-Glu(OBzl)-Ala-Arg-AMC); conditions: factor XIa from Kordia, 15 min preincubation, 30 min at 22° C., fluorescence
T1 construct: purchased Kordia
Procedure: To determine the factor XIa inhibition of the substances according to the invention, a biochemical test system is used which utilizes the reaction of a peptidic factor XIa substrate to determine the enzymatic activity of human factor XIa. Here, factor XIa cleaves from the peptic factor XIa substrate the C-terminal aminomethylcoumarin (AMC), the fluorescence of which is measured. The determinations are carried out in microtitre plates.
(§1) Test substances are dissolved in dimethyl sulphoxide and serially diluted in dimethyl sulphoxide (3000 μM to 0.0078 μM; resulting final concentrations in the test: 50 μM to 0.00013 μM). In each case 1 μl of the diluted substance solutions are placed into the wells of white microtitre plates from Greiner (384 wells). Subsequently, the following are added successively: 20 μl of assay buffer (50 mmol/l Tris buffer pH 7.4; 100 mmol/l sodium chloride; 5 mmol/l calcium chloride; 0.1% bovine serum albumin) and 20 μl of factor XIa from Kordia (0.45 nM in assay buffer). After 15 min of incubation, the enzyme reaction is started by addition of 20 μl of the factor XIa substrate Boc-Glu(OBzl)-Ala-Arg-AMC dissolved in assay buffer (10 μM in assay buffer) from Bachem, the mixture is incubated at room temperature (22° C.) for 30 min and fluorescence is then measured (excitation: 360 nm, emission: 460 nm). The measured emissions of the test batches with test substance are compared to those of control batches without test substance (only dimethyl sulphoxide instead of test substance in dimethyl sulphoxide), and IC50 values are calculated from the concentration/activity relationships.

human plasmin = biological target: T2, human plasmin (Homo sapiens, UniProt P00747); assay: Measurement of plasmin inhibition (fluorogenic peptide substrate MeOSuc-Ala-Phe-Lys-AMC); conditions: plasmin from Kordia, 15 min preincubation, 30 min at 22° C., fluorescence
T2 construct: purchased Kordia
T2 sequence (P00747 581-810 limits assumed): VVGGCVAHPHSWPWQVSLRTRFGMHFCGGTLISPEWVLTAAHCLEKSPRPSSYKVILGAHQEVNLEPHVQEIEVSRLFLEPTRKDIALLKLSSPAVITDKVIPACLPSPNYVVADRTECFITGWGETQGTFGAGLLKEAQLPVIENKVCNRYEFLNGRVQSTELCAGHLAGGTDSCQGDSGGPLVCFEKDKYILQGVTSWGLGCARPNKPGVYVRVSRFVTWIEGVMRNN
T2 sequence (P00747 97-580 partner limits assumed): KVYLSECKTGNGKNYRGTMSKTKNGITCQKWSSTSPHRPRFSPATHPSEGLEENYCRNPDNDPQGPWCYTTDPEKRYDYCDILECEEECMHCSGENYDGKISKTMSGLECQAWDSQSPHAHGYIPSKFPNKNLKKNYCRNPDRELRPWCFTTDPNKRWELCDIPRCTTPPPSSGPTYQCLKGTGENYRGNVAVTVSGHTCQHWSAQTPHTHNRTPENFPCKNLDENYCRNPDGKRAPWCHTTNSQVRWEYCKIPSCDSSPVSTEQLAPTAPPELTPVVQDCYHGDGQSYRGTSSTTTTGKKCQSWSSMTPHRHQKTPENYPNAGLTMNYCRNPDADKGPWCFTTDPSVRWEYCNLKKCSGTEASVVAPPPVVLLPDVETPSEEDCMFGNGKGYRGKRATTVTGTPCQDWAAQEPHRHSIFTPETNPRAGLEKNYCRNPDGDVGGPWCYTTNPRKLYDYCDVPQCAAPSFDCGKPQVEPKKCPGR
Procedure: The plasmin inhibition of the inventive substances is determined using a biochemical test system which utilizes the reaction of a peptidic plasmin substrate to determine the enzymatic activity of human plasmin. Here, plasmin cleaves from the peptic plasmin substrate the C-terminal aminomethylcoumarin (AMC), the fluorescence of which is measured. The determinations are carried out in microtitre plates.
as §1, with “plasmin” for “factor XIa”, “(0.3 μg/ml” for “(0.45 nM”, “MeOSuc-Ala-Phe-Lys-AMC” for “Boc-Glu(OBzl)-Ala-Arg-AMC”, “(150” for “(10”, “ICso” for “IC50”

human and animal plasma = assay: Determination of the anticoagulatory activity: activated partial thromboplastin time (aPTT) in plasma; conditions: in vitro in plasma, C.K. Prest kit, 3 min at 37° C.
Procedure: The anticoagulatory activity of the test substances is determined in vitro in human and animal plasma (for example mouse, rat, rabbit, pig and dog plasma). To this end, blood is drawn off in a mixing ratio of sodium citrate/blood of 1:9 using a 0.11 molar sodium citrate solution as receiver. Immediately after the blood has been drawn off, it is mixed thoroughly and centrifuged at about 4000 g for 15 minutes. The supernatant is pipetted off.
The activated partial thromboplastin time (aPTT) is determined in the presence of varying concentrations of test substance or the corresponding solvent using a commercial test kit (C.K. Prest from Diagnostica Stago). The test compounds are incubated with the plasma and the PTT reagent (cephalin, kaolin) at 37° C. for 3 minutes. Coagulation is then started by addition of a 25 mM aqueous calcium chloride solution, and the time when coagulation occurs is determined. The concentration of test substance which brings about a 1.5-fold extension of the aPTT is determined Activity data from this test are listed in Table B below: […]

T1 sequence (P03951 388-625 limits assumed): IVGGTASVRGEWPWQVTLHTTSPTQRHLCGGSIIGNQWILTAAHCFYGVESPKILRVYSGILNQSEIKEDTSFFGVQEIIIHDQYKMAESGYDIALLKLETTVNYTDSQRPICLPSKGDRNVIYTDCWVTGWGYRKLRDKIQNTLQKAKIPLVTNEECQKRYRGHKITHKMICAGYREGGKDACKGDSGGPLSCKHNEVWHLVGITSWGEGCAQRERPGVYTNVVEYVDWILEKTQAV
T1 sequence (P03951 19-387 partner limits assumed): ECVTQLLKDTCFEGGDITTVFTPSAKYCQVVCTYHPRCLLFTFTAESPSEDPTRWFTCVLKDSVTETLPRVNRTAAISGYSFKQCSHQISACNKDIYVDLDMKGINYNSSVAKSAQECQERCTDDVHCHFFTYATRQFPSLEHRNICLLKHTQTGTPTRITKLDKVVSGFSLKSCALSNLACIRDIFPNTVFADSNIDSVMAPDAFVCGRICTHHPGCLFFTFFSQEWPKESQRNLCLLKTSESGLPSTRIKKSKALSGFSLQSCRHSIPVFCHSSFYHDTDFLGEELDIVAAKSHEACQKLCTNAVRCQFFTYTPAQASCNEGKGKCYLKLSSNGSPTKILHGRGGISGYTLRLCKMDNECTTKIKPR

Row | Structure (SMILES) | IC50 (human factor XIa) [nM] | IC50 (human plasmin) [nM] | aPTT (concentration of test substance which brings about a 1.5-fold extension of the aPTT) (human and animal plasma) [µmol/L]
1 | NC[C@H]1CC[C@H](C(=O)N[C@@H](Cc2ccc(-c3ccc4c(c3)NC(=O)CC4)cc2)C(=O)Nc2ccc(-c3nn[nH]n3)c(F)c2)CC1 [Example 12, N-alpha-{[trans-4-(Aminomethyl)cyclohexyl]carbonyl}-N-[3-fluoro-4-(2H-tetrazol-5-yl)phenyl]-4-(2-oxo-1,2,3,4-tetrahydroquinolin-7-yl)-L-phenylalaninamide hydrochloride] | 2.4 | 5.9 | –
2 | Cc1cc2nc(C(C)C)[nH]c2cc1-c1ccc(C[C@H](NC(=O)[C@H]2CC[C@H](CN)CC2)C(=O)Nc2ccc(-c3nnc(C(F)(F)C(F)(F)C(=O)O)[nH]3)cc2)cc1 [Example 24, 3-[5-(4-{[N-{[trans-4-(Aminomethyl)cyclohexyl]carbonyl}-4-(2-isopropyl-6-methyl-1H-benzimidazol-5-yl)-L-phenylalanyl]amino}phenyl)-4H-1,2,4-triazol-3-yl]-2,2,3,3-tetrafluoropropanoic acid hydrochloride] | 0.5 | 1.4 | –
3 | NC[C@H]1CC[C@H](C(=O)N[C@@H](Cc2ccc(-c3ccc4c(c3)NC(=O)CC4)cc2)C(=O)Nc2ccc(-c3nn[nH]n3)cc2)CC1 [Example 9, N-alpha-{[trans-4-(Aminomethyl)cyclohexyl]carbonyl}-4-(2-oxo-1,2,3,4-tetrahydroquinolin-7-yl)-N-[4-(2H-tetrazol-5-yl)phenyl]-L-phenylalaninamide hydrochloride] | 3.7 | 25 | –
4 | Cc1nc2c(cc1-c1ccc(C[C@H](NC(=O)[C@H]3CC[C@H](CN)CC3)C(=O)Nc3ccc4[nH]c(=O)[nH]c4c3)cc1)NCCN2 [Example 28, N-alpha-{[trans-4-(Aminomethyl)cyclohexyl]carbonyl}-4-(6-methyl-1,2,3,4-tetrahydropyrido[2,3-b]pyrazin-7-yl)-N-(2-oxo-2,3-dihydro-1H-benzimidazol-5-yl)-L-phenylalaninamide hydrochloride] | 37 | – | 1.42
5 | Cc1cc2[nH]c(C(C)C)nc2cc1-c1ccc(C[C@@H](NC(=O)C2CCC(CN)CC2)C(=O)Nc2ccc3[nH]c(=O)[nH]c3c2)cc1 (single isomer, unassigned; enantiomer 1) [Example 38, N-alpha-{[trans-4-(Aminomethyl)cyclohexyl]carbonyl}-4-(2-isopropyl-6-methyl-1H-benzimidazol-5-yl)-N-(2-oxo-2,3-dihydro-1H-benzimidazol-5-yl)-D-phenylalaninamide hydrochloride (Enantiomer 1)] | 37 | 20 | –
6 | Cc1cc2nc[nH]c2cc1-c1ccc(C[C@H](NC(=O)[C@H]2CC[C@H](CN)CC2)C(=O)Nc2ccc3c(=O)[nH][nH]c3c2)cc1 [Example 8, N-alpha-{[trans-4-(Aminomethyl)cyclohexyl]carbonyl}-4-(5-methyl-1H-benzimidazol-6-yl)-N-(3-oxo-2,3-dihydro-1H-indazol-6-yl)-L-phenylalaninamide hydrochloride] | 6 | 21 | –
7 | NC[C@H]1CC[C@H](C(=O)N[C@@H](Cc2ccc(-c3ccc4c(c3)CNC4=O)cc2)C(=O)Nc2ccc(-c3nc(C(F)(F)C(F)(F)C(=O)O)n[nH]3)cc2)CC1 [Example 29, 3-[5-(4-{[N-{[trans-4-(Aminomethyl)cyclohexyl]carbonyl}-4-(1-oxo-2,3-dihydro-1H-isoindol-5-yl)-L-phenylalanyl}amino}phenyl)-1H-1,2,4-triazol-3-yl]-2,2,3,3-tetrafluoropropanoic acid hydrochloride] | 3.9 | – | 0.28
8 | NCCn1cnc2cc(-c3ccc(C[C@H](NC(=O)C4CCC(CN)CC4)C(=O)Nc4ccc(-c5nn[nH]n5)cc4)cc3)ccc21 (stereo partly drawn) [Example 13, 4-[1-(2-Aminoethyl)-1H-benzimidazol-5-yl]-N-alpha-{[trans-4-(aminomethyl)cyclohexyl]-carbonyl]-N-[4-(2H-tetrazol-5-yl)phenyl]-L-phenylalaninamide hydrochloride] | 6.6 | – | 0.18
9 | Cn1cc(-c2ccc(C[C@H](NC(=O)C3CCC(CN)CC3)C(=O)Nc3ccc(-c4nn[nH]n4)cc3)cc2)c(=O)[nH]c1=O (stereo partly drawn) [Example 5, N-alpha-{[trans-4-(Aminomethyl)cyclohexyl]carbonyl}-4-(1-methyl-2,4-dioxo-1,2,3,4-tetrahydropyrimidin-5-yl)-N-[4-(2H-tetrazol-5-yl)phenyl]-L-phenylalaninamide hydrochloride] | 5.1 | – | 0.06

Second part, led by results:

Row | IC50 (human factor XIa) [nM] | IC50 (human plasmin) [nM] | Structure (SMILES) | aPTT (concentration of test substance which brings about a 1.5-fold extension of the aPTT) (human and animal plasma) [µmol/L]
10 | 1.1 | 0.64 | Cc1cc2[nH]c(C(C)C)nc2cc1-c1ccc(C[C@H](NC(=O)C2CCC(CN)CC2)C(=O)Nc2ccc3[nH]c(=O)[nH]c3c2)cc1 (single isomer, unassigned; enantiomer 2) [Example 39, N-alpha-{[trans-4-(Aminomethyl)cyclohexyl]carbonyl}-4-(2-isopropyl-6-methyl-1H-benzimidazol-5-yl)-N-(2-oxo-2,3-dihydro-1H-benzimidazol-5-yl)-L-phenylalaninamide hydrochloride (Enantiomer 2)] | –
11 | 3.1 | 1.3 | Cc1cc2[nH]c(C(C)C)nc2cc1-c1ccc(C[C@H](NC(=O)[C@H]2CC[C@H](CN)CC2)C(=O)Nc2ccc3[nH]c(=O)[nH]c3c2)cc1 [Example 19, N-alpha-{[trans-4-(Aminomethyl)cyclohexyl]carbonyl}-4-(2-isopropyl-6-methyl-1H-benzimidazol-5-yl)-N-(2-oxo-2,3-dihydro-1H-benzimidazol-5-yl)-L-phenylalaninamide] | –
12 | 5.6 | – | Cn1c(=O)[nH]c2ccc(-c3ccc(C[C@H](NC(=O)C4CCC(CN)CC4)C(=O)Nc4ccc(-c5nn[nH]n5)cc4)cc3)cc21 (stereo partly drawn) [Example 4, N-alpha-{[trans-4-(Aminomethyl)cyclohexyl]carbonyl}-4-(3-methyl-2-oxo-2,3-dihydro-1H-benzimidazol-5-yl)-N-[4-(2H-tetrazol-5-yl)phenyl]-L-phenylalaninamide hydrochloride] | 0.24
13 | 1.4 | – | NCC1CCC(C(=O)N[C@@H](Cc2ccc(-c3cncc4ccccc34)cc2)C(=O)Nc2ccc(-c3nn[nH]n3)cc2)CC1 (stereo partly drawn) [Example 3, N-alpha-{[trans-4-(Aminomethyl)cyclohexyl]carbonyl}-4-isoquinolin-4-yl-N-[4-(2H-tetrazol-5-yl)phenyl]-L-phenylalaninamide hydrochloride] | 0.14
14 | 9 | – | NC[C@H]1CC[C@H](C(=O)N[C@@H](Cc2ccc(-c3cccc4[nH]ncc34)cc2)C(=O)Nc2ccc(-c3nn[nH]n3)cc2)CC1 [Example 6, N-alpha-{[trans-4-(Aminomethyl)cyclohexyl]carbonyl}-4-(1H-indazol-4-yl)-N-[4-(2H-tetrazol-5-yl)phenyl]-L-phenylalaninamide hydrochloride] | 0.41

From US20160280688A1, “SUBSTITUTED PHENYLALANINE DERIVATIVES” (BAYER PHARMA AKTIENGESELLSCHAFT, priority 2013, published 2016)
